{"source": "paper PMC2137936", "about": "“Molecular Analysis of Thymopentin Binding to HLA-DR Molecules” (PLoS ONE, 2007)", "key": {"[1]": {"test_system": "HLA-DR on the surface of EBV-transformed B cells", "experiment": "Direct binding of FITC-labeled TP5 to EBV-transformed B cells (flow cytometry)", "design": "species or system human", "method": "Therefore, a quantitative flow cytometric assay was used to get a better insight into the binding affinity of TP5 to HLA-DR on the surface of EBV-transformed B cells. […] Simultaneously, a correlation with R^2 = 0.9903 and a slope of 0.01311 were obtained. We then compared the specific binding of FITC-labeled TP5 to HLA-DR.\nEBV-transformed B cells expressing HLA-DR molecules were maintained in RPMI 1640 containing 2 mM L-glutamine (HyClone Laboratories, UT, USA) supplemented with 10% standard FBS (HyClone Laboratories, UT, USA) at 37°C and in 5% CO2. Expression of HLA-DR was verified using mAb-DR L243 labeled with FITC (Pharmingen, San Diego, USA), by incubation for 45 min on ice followed by CLSM and FCM.\nEBV-transformed B cells (3×10^5 per sample) were incubated with various concentrations of FITC-labeled TP5 in binding buffer for 2 h at 37°C. Thereafter, the cells were washed twice and resuspended in 500 µl PBS, followed by flow cytometric analysis using a FACSCan analyzer (Becton Dickinson Immunochemical Systems, Mountain View, USA). A total of ten thousand events were acquired for each sample. The MFI was used to evaluate the binding ability of FITC-labeled TP5 to APC."}, "[2]": {"test_system": "EBV-transformed B cells expressing HLA-DR", "experiment": "Cellular peptide loading assay (CLSM uptake)", "type": "cell-based, human", "conditions": "10 µM, 2 h at 37°C, excitation 488 nm", "method": "To validate the ability of FITC-labeled TP5 to load on EBV-transformed B cells expressing HLA-DR, a qualitative CLSM assay was used to examine the fluorescent signal of EBV-transformed B cells. The surface fluorescence was hardly observed from the cells in the absence of FITC-labeled TP5 at the excitation of 488 nm (Fig. 1A).\nWe harvested 3×10^5 cells, washed twice with phosphate-buffered saline (PBS) buffer (pH 7.4) supplemented with 0.1% BSA and 0.05% NaN3. Ten µM FITC- labeled TP5 was added to the treated cells in PBS (pH 7.4) containing 1% BSA (binding buffer), then incubated for 2 h at 37°C. Thereafter, the cells were washed twice and resuspended in 500 µl PBS, followed by CLSM analysis using Leica Microsystems (TCS SP2, Heidelberg, Germany)."}}, "note": "No end group written: not given here.", "data": [{"substance": "FITC-labeled TP5: TP5 conjugated with fluorescein isothiocyanate (FITC) (RKDVY; also: FITC label, position not given here)", "values": [{"measurement": "cells stained above the background", "setting": "[1]; flow cytometry histogram of fluorescence intensities, EBV-transformed B cells (Fig. 4)", "value": 94, "unit": "%"}, {"measurement": "increase in mean fluorescence intensity (MFI) above background", "setting": "[1]; flow cytometry, EBV-transformed B cells versus PBS alone (Fig. 4)", "value": "approximately 3 orders of magnitude"}, {"measurement": "surface fluorescence of cells (uptake)", "setting": "[2]", "value": "strong surface fluorescence"}]}]}
